Laboratory results: PMC12713023, “CDH1 Orchestrates Anabolic Events to Promote Cell Cycle Initiation” (Advanced Science, 2025)

Legend:
CPT2 = target: T1, CPT2 (Homo sapiens, UniProt P23786); test: CoA consumption, DTNB at […] nm; format: biochemical; conditions: 2 mM CoA, 2 mM palmitoyl-L-carnitine, pH 7.5, 37 °C
T1 sequence (P23786 26-658): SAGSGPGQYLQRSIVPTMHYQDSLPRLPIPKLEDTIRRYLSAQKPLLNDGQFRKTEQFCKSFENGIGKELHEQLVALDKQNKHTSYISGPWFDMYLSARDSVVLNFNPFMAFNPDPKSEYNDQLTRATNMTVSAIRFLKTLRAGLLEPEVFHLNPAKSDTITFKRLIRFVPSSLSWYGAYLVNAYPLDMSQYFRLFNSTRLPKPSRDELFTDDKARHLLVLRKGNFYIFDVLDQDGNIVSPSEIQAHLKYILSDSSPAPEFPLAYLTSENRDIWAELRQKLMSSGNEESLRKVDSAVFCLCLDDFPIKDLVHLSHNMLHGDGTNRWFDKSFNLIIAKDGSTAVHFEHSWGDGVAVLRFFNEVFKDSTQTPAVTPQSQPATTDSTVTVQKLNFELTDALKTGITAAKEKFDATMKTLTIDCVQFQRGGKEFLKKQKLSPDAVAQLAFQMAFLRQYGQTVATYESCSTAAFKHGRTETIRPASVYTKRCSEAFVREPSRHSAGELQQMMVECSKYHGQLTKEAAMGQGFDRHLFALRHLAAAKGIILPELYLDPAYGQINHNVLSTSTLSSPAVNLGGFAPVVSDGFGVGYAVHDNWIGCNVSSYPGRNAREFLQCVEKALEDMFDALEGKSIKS

[1] = target: T2, TKTL1 (transketolase-like-1) (Homo sapiens, UniProt P51854); test: biolayer interferometry, His-tagged protein on anti-His biosensors, […] fit; format: binding; conditions: PBST, 30 °C, 0.82-200 µM ligand; KD = kd/ka
T2 construct: CDS in pET-22b(+), His-tagged, E. coli BL21(DE3), Ni-NTA; tag kept (captured on anti-His biosensors)
T2 sequence (P51854 1-596): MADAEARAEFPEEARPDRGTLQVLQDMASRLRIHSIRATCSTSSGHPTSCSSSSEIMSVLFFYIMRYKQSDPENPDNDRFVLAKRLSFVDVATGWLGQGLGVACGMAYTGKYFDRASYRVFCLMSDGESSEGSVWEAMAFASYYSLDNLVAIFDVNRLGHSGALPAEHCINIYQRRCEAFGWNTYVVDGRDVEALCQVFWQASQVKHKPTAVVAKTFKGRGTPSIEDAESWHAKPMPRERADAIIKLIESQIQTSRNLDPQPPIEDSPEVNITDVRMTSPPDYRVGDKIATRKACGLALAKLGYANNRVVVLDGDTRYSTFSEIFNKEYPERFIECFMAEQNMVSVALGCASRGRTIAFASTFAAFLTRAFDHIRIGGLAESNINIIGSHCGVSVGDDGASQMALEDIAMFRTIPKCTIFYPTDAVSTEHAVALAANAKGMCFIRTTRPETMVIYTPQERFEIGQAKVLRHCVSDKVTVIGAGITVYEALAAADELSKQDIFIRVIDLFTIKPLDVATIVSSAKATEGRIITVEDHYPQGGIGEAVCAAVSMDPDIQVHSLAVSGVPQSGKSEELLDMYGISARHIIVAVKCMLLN

SMILES	relative specific activity (CPT2)	Kd [1]
CC(C)(COP(=O)(O)OP(=O)(O)OC[C@H]1O[C@@H](n2cnc3c(N)ncnc32)[C@H](O)[C@@H]1OP(=O)(O)O)[C@@H](O)C(=O)NCCC(=O)NCCS [CoA]	CPT2 activity was assayed by measuring the decrease in CoA levels	–
O=S(=O)(O)OC[C@H]1OC(O)[C@H](O)[C@@H]1O (some centres unmarked) [R5S]	–	8.58 µM
